These results are taken from patent publication US8158811B2, “Unsaturated fatty hydroxy acid derivatives and the dermocosmetologic use thereof” (Pierre Fabre Dermo-Cosmetique, priority 2005, dated 2012).

The subject of assay [1] is membrane lipids, fibroblast line L929. Nature of the assay: TBARS test, lipid peroxidation after H2O2/Fe2+/Fe3+. To be noted: 400 μg/ml. The assay is classed as cell-based, murin.
Assay [2] deals with intracellular AOSs, fibroblast line L929. Nature of the assay: in vitro assay of intracellular AOSs (H2DCF-DA probe) after H2O2/iron oxidative stress. The note with it: 400 μg/ml, pre-incubation 3 h, L929, 18 tests. The assay is classed as cell-based, murin. An excerpt:
We set up an in vitro study model of oxidative stress induced by H2O2/iron as H2O2 generates huge amounts of intracellular AOSs as a result of a chain reaction triggered by oxidation of membrane lipids.
This technique is based on the use of a fluorescent probe, 6-carboxy-2′,7′-dichlorodihydro fluorescein diacetate, di (acetoxymethyl ester) (H2DCF-DA) which once it penetrates into the cell is deacetylated by intracellular esterases and thus forms H2DCF. This product is oxidized by intracellular AOSs into a highly fluorescent compound: 2′,7′-dichlorofluorescein (DCF) (Suematsu M et al., 1996, Free Radicals Practical Approach, Punchard ed. P 83-99).
The materials and methods used for in vitro assay of intracellular AOSs are given below. • a) Cell tool • Cutaneous murin fibroblast cell line L929. • b) Materials • 96 well flat based microplate. • Cytofluor II cytofluorameter: Ref. PERCEPTIVE BIOSYSTEMS. • c) Reagents • Cell culture reagents: • Dulbecco's Modified Eagle Medium as the culture medium (DMEM) • Foetal calf serum • Phosphate buffer PBS pH 7.4 • Trypsin EDTA (1X) Fluorescent probe • 6-carboxy-2′,7′-dichlorodihydrofluorescein diacetate, di(acetoxymethyl ester) (PM.675,43) Cell stimulation products • Hydrogen peroxide (H2O2) 3% Ref. GIFRER (Gifrer Barbezat Laboratory) • Ferrous ammonium sulphate (Fe^2+) • Ferric ammonium sulphate (Fe^3+) • d) Products tested:
For the evaluation of unsaturated fatty hydroxy acid derivatives, the dilutions are prepared in freshly prepared culture medium for a concentration range of 0.02, 0.2, 2 and 20 ng/ml. • e) Protocol. Cell culturing.
Cells from the fibroblast line L929 were cultured in 96-well flat base microplates in 100 μl of DMEM supplemented with 10% foetal calf serum. These were incubated overnight at 37° C. in a humid atmosphere at 5% CO2. The blank plate without cells was evaluated using 6 wells.
Dilutions of the products to be tested and reference molecule were made up in culture medium without foetal calf serum then deposited in 7 wells at a rate of 100 μl per well.
Cells were then incubated for 3 hours at 37° C. in a humid atmosphere at 5% CO2.
Cells were rinsed in PBS 1X at a rate of 100 μl per well. They were then incubated for 30 minutes at 37° C. in a humid atmosphere at 5% CO2 with 50 μl of the H2DCF-DA probe at 5 μM.
After 30 minutes of contact with the probe alone, cells were incubated for 30 minutes at 37° C. in a humid atmosphere at 5% CO2 with the addition of 25 μl of H2O2 at 800 μM and 25 μl of ferrous iron and ferric iron solution at 8 mM in order to obtain final concentrations of 200 μM of H2O2 and 2 mM of ferrous iron and ferric iron.
Cells were then rinsed with PBS 1X at a rate of 100 μl per well then incubated for 30 minutes at 37° C. in a humid atmosphere at 5% CO2 with 100 μl of PBS 1X.
This incubation for 1 h 30 minutes at 37° C. allows intracellular esterases to deacetylate the probe into H2DCF which can be oxidized by the intracellular AOSs into DCF: a fluorescent compound whose formation is proportional to the quantity of intracellular AOSs.
The intensity of fluorescence is read on a cytofluorimeter at λexcitation=485 nm and λemission=530 nm. This reflects the amount of intracellular AOS produced.
The ratio below makes it possible to calculate the % protection against the production of intracellular AOSs for each product concentration tested (because the intensity of fluorescence or IF reflects the release of intracellular AOSs)
• Pre-incubation: 3 h • Number of tests=3 for all compounds. • Number of tests=18 for vit. E

SMILES strings stand for the structures.

On to `Cc1c(C)c2c(c(C)c1O)CC[C@@](C)(CCC[C@H](C)CCC[C@H](C)CCCC(C)C)O2` [Vit. E, alphatocopherol], for which the “% membrane lipid protection, Mean” value is listed as 44.66% in assay [1] and “protects cell membranes very effectively” in assay [1] (listed as Vitamin E). In assay [2], the “Percentage inhibition of the intracellular production of AOS” value is given as “Vit. E 400 μg/ml 47%”.
